Measured values: patent US11319321B2, “[1,2,4]triazolo[1,5-a]pyrimidine compounds as PDE2 inhibitors” (Janssen Pharmaceutica NV, priority 2016, dated 2022)

Legend:
[1] = target: T1, Human recombinant PDE2A (hPDE2A) (Homo sapiens, UniProt O00408); assay: In vitro assay PDE2A (SPA, 3H-cGMP); type: biochemical
T1 construct: made in house; host or cells: Sf9 insect cells (baculovirus)
In short: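 Sf9-expressed, Ni-sepharose-purified enzyme in 50 mM Tris pH 7.8, 8.3 mM MgCl2, 1.7 mM EGTA with 10 μM cGMP plus 0.01 μCi 3H-cGMP (final), 1% DMSO. Reaction 45 min at room temperature; SPA bead radioactivity counted as cpm, blanks without enzyme, controls with DMSO instead of compound.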

hPDE3B = assay: In vitro assay PDE3 (SPA, 3H-cAMP); type: biochemical, human; conditions: 0.4 μM cAMP substrate
hPDE10A2 = hPDE10A2 (Homo sapiens, UniProt Q9Y233); assay: biochemical; conditions: 60 nM cAMP substrate
Sequence of hPDE10A2 (Q9Y233 267-1055): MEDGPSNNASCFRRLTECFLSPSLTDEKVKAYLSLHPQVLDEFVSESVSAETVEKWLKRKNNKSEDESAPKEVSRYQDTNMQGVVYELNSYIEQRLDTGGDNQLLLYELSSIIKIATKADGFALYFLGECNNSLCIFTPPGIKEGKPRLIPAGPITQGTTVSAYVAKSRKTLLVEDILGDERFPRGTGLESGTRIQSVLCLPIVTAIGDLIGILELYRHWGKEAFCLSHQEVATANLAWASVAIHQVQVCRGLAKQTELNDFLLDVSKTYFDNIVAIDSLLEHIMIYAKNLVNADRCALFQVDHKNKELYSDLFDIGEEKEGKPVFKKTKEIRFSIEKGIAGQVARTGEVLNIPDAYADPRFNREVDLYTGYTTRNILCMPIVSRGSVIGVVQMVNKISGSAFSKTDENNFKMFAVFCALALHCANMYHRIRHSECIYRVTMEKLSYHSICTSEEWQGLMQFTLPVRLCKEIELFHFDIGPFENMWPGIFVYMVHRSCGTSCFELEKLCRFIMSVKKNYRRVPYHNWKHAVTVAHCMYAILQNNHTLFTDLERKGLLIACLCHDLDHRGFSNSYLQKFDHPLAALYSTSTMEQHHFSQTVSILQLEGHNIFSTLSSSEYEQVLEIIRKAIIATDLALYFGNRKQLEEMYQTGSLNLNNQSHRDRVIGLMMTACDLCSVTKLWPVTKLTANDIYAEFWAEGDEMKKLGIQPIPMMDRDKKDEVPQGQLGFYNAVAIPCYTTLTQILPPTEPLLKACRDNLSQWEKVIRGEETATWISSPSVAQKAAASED
In short: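 His-purified rat or human PDE10A2 from baculovirus-infected Sf9 cells was incubated with compound in 50 mM Tris pH 7.8, 8.3 mM MgCl2, 1.7 mM EGTA plus 60 nM cAMP and […] 3H-cAMP, 60 min at room temperature. Product captured by SPA beads; IC50 fitted from % control (1% DMSO) minus enzyme-free blank.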

T1 sequence (O00408 whole entry): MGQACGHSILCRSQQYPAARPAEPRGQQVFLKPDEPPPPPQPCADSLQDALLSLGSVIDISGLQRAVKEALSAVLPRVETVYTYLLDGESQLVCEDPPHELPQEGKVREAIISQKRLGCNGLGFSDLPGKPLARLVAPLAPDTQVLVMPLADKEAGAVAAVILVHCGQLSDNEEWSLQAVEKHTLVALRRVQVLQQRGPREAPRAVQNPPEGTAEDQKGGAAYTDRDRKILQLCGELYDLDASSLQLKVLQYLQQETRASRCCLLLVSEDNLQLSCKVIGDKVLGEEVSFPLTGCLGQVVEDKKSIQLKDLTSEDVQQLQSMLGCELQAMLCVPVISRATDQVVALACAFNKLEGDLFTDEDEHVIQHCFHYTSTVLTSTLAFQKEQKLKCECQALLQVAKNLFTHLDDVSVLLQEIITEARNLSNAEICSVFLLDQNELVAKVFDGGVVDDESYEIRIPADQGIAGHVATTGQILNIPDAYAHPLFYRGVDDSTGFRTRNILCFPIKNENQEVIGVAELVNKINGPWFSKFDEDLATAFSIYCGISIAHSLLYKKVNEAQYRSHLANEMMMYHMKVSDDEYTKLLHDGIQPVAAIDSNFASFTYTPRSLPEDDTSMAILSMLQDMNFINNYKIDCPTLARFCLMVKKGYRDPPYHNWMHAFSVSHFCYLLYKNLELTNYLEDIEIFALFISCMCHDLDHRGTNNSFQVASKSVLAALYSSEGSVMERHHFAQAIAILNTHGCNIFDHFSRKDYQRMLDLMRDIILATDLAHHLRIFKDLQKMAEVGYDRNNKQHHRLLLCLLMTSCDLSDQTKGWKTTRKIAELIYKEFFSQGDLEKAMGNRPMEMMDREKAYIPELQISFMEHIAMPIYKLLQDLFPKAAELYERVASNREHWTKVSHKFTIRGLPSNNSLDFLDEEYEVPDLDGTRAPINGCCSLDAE

## C[C@@H]1CCN(Cc2cccc(N3CCCCC3)n2)C[C@H]1c1cc(C(F)F)nc2ncnn12 [Compound 17]
[1]; 10 μM cGMP substrate
  Emax: 100%
[1]; hPDE2A pIC50, 10 μM cGMP substrate
  IC50: 0.195 µM
hPDE3B
  hPDE3B pIC50: <5
hPDE3B; in % (unit assumed)
  hPDE3B Emax: 41
hPDE10A2; human clone, read-out: hPDE10A2 or rPDE10A2 pIC50 (converted)
  IC50: > 10 µM
hPDE10A2; read-out: hPDE10A2 or rPDE10A2 Emax, human clone
  Emax: 49%
other
  melting point: 137.52 °C
